From patent US20090186088A1, “INHALABLE DRUG” (NanoMaterials Technology Pte Ltd, priority 2005, published 2009)

Tests used:
[1] = British Pharmacopoeia; cited from earlier work
[2] = Dispersion experiments in multi-stage liquid impinger (MSLI), fine particle fraction; type: physicochemical; conditions: beaker-synthesised powder, 60 L/min, 4 seconds
Description: The measurement of particle sizes in vitro allows a simplistic estimation of the aerodynamic particle size distribution. This process utilizes cascade or impactor devices such as the multi-stage liquid impinger (MSLI) (FIG. 7) to provide a breakdown of the particle size distribution through separation and collection of powder of different Da.
The MSLI consists of 5 stages which have been calibrated at 60 L/min to collect powder of a certain Da, known as the cut-off Da:
At flow rates of 60-100 L/min, the particles which have a Da of less than 5 μm are expected to be able to surpass oropharangeal deposition and the filter of the MSLI from equation 3. From the results of the MSLI, the FPF (fine particle fraction) can be calculated, and expressed as two different forms: […]
The recovery was also calculated for each dispersion which represents the mass of powder which was accounted for compared with the mass which was loaded into the capsules (Equation 6).
The equipment used to perform the dispersion experiments was the MSLI, which has been described earlier. […] The supernatant was then collected. • Step 11: All rinsings were collected into separately labeled glass vials and analyzed by UV immediately to minimize the effect of evaporation, which would produce an overestimation of the concentration collected.

[3] = type: physicochemical
Description: The aim of this experiment was to achieve a suspension containing fine Salbutamol sulfate precipitate. […] Alcohol (ethanol) therefore was considered to be the best choice, considering the safety of the possible solvents. The solubility of a solid is a function of the solid particle size according to Equation 1
where R is the gas constant, T the absolute temperature, S and Sr the solubility of large solid particles and of particles having small radius r respectively, and M, σ, and d are the molecular weight, surface tension, and density of the solid respectively. It will be appreciated from Eq. 1 that the solubility of a solid will increase as the particle size decreases. […] Consequently, when one considers the yield of the process, alcohol no longer appears suitable. […] Further, IPA is a commonly used organic solvent.

reduction in FPF(emitted), Rotahaler vs Aeroliser [2] | reduction in FPF(total), Rotahaler vs Aeroliser [2] | solubility in IPA [3] | Compound | solubility in alcohol [1] | solubility in ether [1] | solubility in water [1] | solubility in methylene chloride [1]
 |  |  | CC(C)(C)NCC(O)c1ccc(O)c(CO)c1 (stereo not shown) [Salbutamol base] | soluble | slightly soluble | sparingly soluble | 
~30% | ~20% | somewhat lower than in alcohol | Salbutamol sulfate | slightly soluble | slightly soluble | freely soluble | very slightly soluble
